Experimental data reported in PMC9820303, “^αN-Acetyl β-Endorphin Is an Endogenous Ligand of σ1Rs That Regulates Mu-Opioid Receptor Signaling by Exchanging G Proteins for σ2Rs in σ1R Oligomers” (International Journal of Molecular Sciences, 2022).
Entries after “also recorded” stand apart in the source; their conditions may differ.

Tests used:
σ1R-BiP = molecular target: T1, σ1R-BiP (Mus musculus, UniProt O55242); assay: In vitro σ1R-BiP association of recombinant proteins (Western blot); format: biochemical; conditions: for effect on σ1R-BiP association: increasing concentrations, 30 min RT, vs control without ligand; for activity at σ1R-BiP against agonists / β-End 1–31: 1 nM β-End 1–31 with increasing competitor (Figure S10)
T1 construct: The coding region of the full-length murine σ1R (AF004927); GST (N, cleaved yes); host or cells: E. coli BL21 (KRX) for σ1R
T1 sequence (O55242 whole entry): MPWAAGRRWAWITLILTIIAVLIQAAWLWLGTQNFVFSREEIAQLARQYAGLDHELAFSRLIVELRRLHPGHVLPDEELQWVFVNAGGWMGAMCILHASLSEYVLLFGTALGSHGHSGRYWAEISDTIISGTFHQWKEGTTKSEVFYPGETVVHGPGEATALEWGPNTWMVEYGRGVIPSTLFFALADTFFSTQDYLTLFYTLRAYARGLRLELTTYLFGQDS
Method: Figure 7 Effect of β-End 1–31, ^αN-acetyl β-End 1–31 and their N-terminal derivatives on σ1R-σ2R, σ1R-NR1 C1 and σ1R-BiP associations. Amino acid sequence of β-End 1–31 showing derivatives 1–26 and 1–27. (A) HaloLink-attached σ2Rs were incubated for 30 min at RT in the presence of σ1Rs (100 nM) in 300 μL of 50 mM Tris-HCl (pH 7.4), 0.2% CHAPS, and 2.5 mM CaCl2. After removing the unbound σ1R proteins, the effects of increasing the peptide concentrations on σ1R-σ2R associations were studied. At the end of the incubation, protein complexes bound to HaloLink-σ2R were obtained by centrifugation, washed three times, solubilized in 2× Laemmli buffer containing β-mercaptoethanol, resolved by SDS-PAGE, and analyzed by Western blotting (for more details, see Section 4). This protocol was also used to assess the effect of ligands on (B) σ1R-NR1 C1 and (C) σ1R-BiP associations. Data were compared to that of the control, which was obtained in the absence of ligands. (A–C) Data are the mean ± SD, n = 3. (D) The β-End 1–31 structural models were predicted by Novafold (DNASTAR Lasergene protein v.17, Inc., Madison, WI, USA). Ribbon model: The 3D structure, charge distribution and hydrophobicity map of β-End 1–31 are shown. Positive charges are shown in red and negative charges in blue. Polar surfaces are shown in yellow, and nonpolar surfaces are shown in orange. Linear model: the opioid (1–5) and flexible region (8–11) sequences are shown in green and orange, respectively, and the amphiphilic helix (15–25) is shown in pink.
The recombinant σ1R (100 nM) was incubated either with Haloprotein (negative control) or together with the immobilized σ2R, NR1 C0-C1-C2 or BiP proteins in 300 µL of a buffer containing 50 mM Tris-HCl (pH 7.4) and 0.2% CHAPS in the presence of 2.5 mM CaCl2 for 30 min at RT. After removal of the unbound σ1R, the agarose-attached complexes were incubated for 30 min with rotation at RT in the presence of increasing concentrations of the ligands in a final reaction volume of 300 µL [50 mM Tris-HCl (pH 7.4), 2.5 mM CaCl2 and 0.2% CHAPS]. Ligands were usually dissolved in aqueous solutions; however, when an organic solvent such as DMSO was required to incorporate, e.g., pregnenolone sulfate, the solvent remained below 1% in the assay buffer. Agarose pellets containing the bound proteins were obtained by centrifugation, washed and resuspended thrice in the presence of 2.5 mM CaCl2, solubilized in 2× Laemmli buffer plus β-mercaptoethanol, and analyzed by Western blotting.
Because all the assays were performed with recombinant proteins, the immune signals provided a single band of the expected size, which was used for the subsequent densitometry analysis. Accordingly, no other regions of the blots provided information and were routinely excluded from the analysis.
Figure S8. Effect of the physiological and nonphysiological sequences of β-End 1-31 and classical σ1R ligands on BiP-σ1R, σ2R-σ1R and NR1 C1-σ1R associations . Agarose-BiP was loaded with σ1Rs, and after the unbound σ1Rs were removed, the agarose-BiP-σ1R complexes were incubated in the absence (control) and presence of increasing concentrations of (A) β-End 1-31 C-terminal physiological derivatives and (B) classical σ1R ligands. C) Agarose-σ2R loaded with σ1Rs was incubated in the absence (control) and with nonphysiological derivatives of β-End 1-31. D) Agarose-NR1 C1 loaded with σ1Rs were incubated in the absence (control) and with nonphysiological derivatives of β-End 1-31. A-D) The σ1Rs that remained attached to the agarose complexes were evaluated by Western blotting. The […]
(1 picture or pasted object on this page, not shown here)
Figure S10. Effect of σ1R agonist/antagonist ligands on σ1R-BiP associations. Agarose-attached BiP proteins were incubated for 30 min in the presence of recombinant σ1R (100 nM) proteins in 300 μL of 50 mM Tris-HCl (pH 7.4), 0.2% CHAPS, and 2.5 mM CaCl2. After the unbound σ1R proteins were […]

MOR = assay: Coprecipitation of G proteins, σ2Rs and NMDAR NR1 C1 with PAG MORs after icv injection; format: in vivo, mouse; conditions: 60 min post-treatment; for effect on association of PAG MOR with G proteins, σ2Rs and NR1 C1: icv: β-End 1–31 5 pmol, ^αN-acetyl β-End 1–31 5 pmol, S1RA 3 nmol, n = 3
MOR, sequence (P42866 whole entry, the tested form may be a part): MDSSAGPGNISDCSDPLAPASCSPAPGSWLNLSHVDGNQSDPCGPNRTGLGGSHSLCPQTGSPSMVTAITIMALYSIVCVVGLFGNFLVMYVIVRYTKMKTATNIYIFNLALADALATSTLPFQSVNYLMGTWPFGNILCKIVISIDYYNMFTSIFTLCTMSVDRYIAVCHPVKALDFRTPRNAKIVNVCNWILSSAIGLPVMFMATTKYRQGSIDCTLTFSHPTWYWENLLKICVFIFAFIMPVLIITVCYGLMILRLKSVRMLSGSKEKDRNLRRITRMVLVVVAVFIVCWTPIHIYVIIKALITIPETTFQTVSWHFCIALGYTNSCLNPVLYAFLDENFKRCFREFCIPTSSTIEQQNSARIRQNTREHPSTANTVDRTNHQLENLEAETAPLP
From the text: The data from σ2R^−/− solubilized cortical tissue were referred to the wild-type control (arbitrary value of 1). […] For each Gα subunit and the σ1R, the immunosignals in the absence of the acetylated peptide were the controls (C, value of 1). […] (D) Coprecipitation of G proteins with MORs in CD1 wild-type and σ2R^−/− mice. MORs were immunoprecipitated (IP) from mouse SBM. Coprecipitated proteins were detached from MORs and analyzed by Western blotting with antibodies directed to Gαi2, Gαo, Gαz and MOR proteins. (E) Effect of in vivo icv injection of β-End 1–31, ^αN-acetyl β-End 1–31 and S1RA on the association of PAG MORs with G proteins, σ2Rs and NMDAR NR1 C1 subunits. β-End 1–31 (5 pmol), ^αN-acetyl β-End 1–31 (5 pmol) and S1RA (3 nmol and 10 nmol) were icv-injected, and the mice were sacrificed 60 min post-treatment to obtain the PAG synaptosomal fraction. The MORs were immunoprecipitated from the solubilized membrane preparations, and the coprecipitated target proteins were analyzed by Western blotting. […] Representative blots are shown. The immunosignal provided by the light chain of the affinity-purified anti MOR IgGs was used as SDS-PAGE loading control. […] Data were analyzed by pairwise Holm–Sidak multiple comparison tests following ANOVA: p < 0.05, 1-β > 0.80.
In immunoprecipitation studies, the cerebral cortices or periaqueductal grey matter (PAG) from 4–6 mice are typically pooled, as described previously [89]. […] The software automatically calculates the optimal exposure time for each of the areas specified to provide the strongest possible signal for accurate quantification of the sample. Protein immunosignals were measured using the area of the strongest signal for each group of samples studied (average optical density of the pixels within the object area/mm^2; AlphaEase FC software); the grey values of the means were then normalized within the 8 bit/256 grey levels [(256 − computed value)/computed value].

σ1R-σ2R = σ1R-σ2R (Mus musculus, UniProt O55242); assay: σ1R/σ2R coprecipitation from CHO cells cotransfected with cMyc-σ1R and HA-σ2R; format: cell-based, Chinese hamster ovary (CHO) cells; parameters: Full-length sigma receptors were subcloned in frame; expressed in transfected cells; host or cells: CHO cells; conditions: peptides 1 nM, PRE084, S1RA and BD1047 100 nM; 30 min in serum-free medium
σ1R-σ2R, sequence (O55242 whole entry): as the sequence (O55242 whole entry) above
Method: Effect of β-End 1–31 and ^αN-acetyl derivative. (A) Single-wavelength and merged images of CHO cells cotransfected with cMyc-σ1R and HA-σ2R. The cells were fixed 48 h after transfection and analyzed by confocal laser scanning microscopy. Transient expression of proteins within the transfected cells was detected with anti-cMyc (green) and anti-HA (red) antibodies (original magnification 10×). […] Scale bar: 30 µm. (B) Nuclei stained with DAPI (blue). (C–F) Single-wavelength and merged images are enlargements of individual cells. Scale bar: 5 µm. Lower panels: (G) Immunoprecipitation (IP) of tagged sigma receptor types from cotransfected CHO cells. […] Representative blots are shown.
CHO cells were cultured in modified Eagle’s medium/nutrient mixture F-12 (DMEM/F12) supplemented with GlutaMax (#31331028, ThermoFisher, Spain), 10% foetal bovine serum (#10500064, ThermoFisher), 100 IU/mL penicillin and 100 μg/mL streptomycin (#15140148, ThermoFisher) at 37 °C in a humidified 5% CO2 incubator as described previously. Full-length sigma receptors were subcloned in frame into the pSF-CMV-Puro-NH2-CMyc N-terminal tag (σ1R, #OGS3214, Merck-Sigma) and pSF-CMV-Puro-NH2-HA N-terminal tag (σ2R, #OGS1500, Merck-Sigma) mammalian plasmids using standard cloning strategies. CHO cells were seeded on 12-well plates at a concentration of 0.35 × 10^6 cells per well, grown in Opti-MEM™ I Reduced Serum Medium (#31985070, ThermoFisher) to 70–80% confluence, transfected using Lipofectamine 2000 (#11668030, Invitrogen) and incubated for 24 h prior to testing for transgene expression. For all experiments, the culture medium was replaced with serum-free medium before the addition of sigma ligands and incubated for 30 min. Cells were then harvested and cellular extracts were prepared for immunoprecipitation analysis. Receptors were detected by Western blot analysis using an antibody that recognizes either tag: Myc-tag (#MA1 21316 BTIN, Invitrogen), HA-tag (#26183-BTIN, Invitrogen).

Row | Compound | effect on σ1R-BiP association (σ1R-BiP) | effect on association of PAG MOR with G proteins, σ2Rs and NR1 C1 (MOR) | effect on σ1R-σ2R association in CHO cells (σ1R-σ2R) | activity at σ1R-BiP against agonists / β-End 1–31 (σ1R-BiP) | effect on association of PAG MOR with G proteins and σ2Rs, 10 nmol (MOR; 10 nmol icv)
1 | β-End 1–27: β-End 1–31 derivative without 4 C-terminal residues (YGGFMTSEKSQTPLVTLFKNAIIKNAY; Beta-endorphin; UniProt P01189 237-263, looked up, fragment) | disrupted these complexes with potencies in the pM/nM range |  |  |  | 
2 | YKKGE [β-End 27–31, C-terminal pentapeptide of β-End 1–31] | increased |  |  |  | 
3 | ^αN-acetyl β-End 1–31: β-End 1–31 acetylated at N terminal Y1, α position | weak at σ1R-BiP associations; also recorded: inactive | slightly reproduced | preserved these protein complexes | neither exhibited activity at σ1R-BiP nor reduced the effect of β-End 1–31 | 
4 | COC(=O)[C@]1(c2ccc(C)cc2)C[C@@H]1CN1CCC(O)(c2ccccc2)CC1 [PPCC, (1R,2S/1S,2R)-2-[4-hydroxy-4-phenylpiperidin-1-yl)methyl]-1-(4-methylphenyl) cyclopropanecarboxylate, reference compound] | impaired σ1R associations with σ2R and BiP |  |  |  | 
5 | KKGE [β-End 28–31, C-terminal tetrapeptide of β-End 1–31] | weak direct effect on σ1R-BiP complexes |  |  | neither exhibited activity at σ1R-BiP nor reduced the effect of β-End 1–31 | 
6 | Br.Br.CN(C)CCN(C)CCc1ccc(Cl)c(Cl)c1 [BD1047, N′-[2-(3,4-dichlorophenyl)ethyl]-N,N,N′-trimethylethane-1,2-diamine;dihydrobromide, reference compound] | did the opposite |  | preserved these protein complexes |  | 
7 | Cl.O=C(OCCN1CCOCC1)C1(c2ccccc2)CCCCC1 [PRE084, 2-(4-morpholinethyl)-1-phenylcyclohexanecarboxylate hydrochloride, reference compound] | impaired σ1R associations with σ2R and BiP |  | strongly decreased the σ1R-σ2R association |  | 
8 | Cc1cc(OCCN2CCOCC2)nn1-c1ccc2ccccc2c1 [S1RA] | did the opposite | slightly reproduced | preserved these protein complexes |  | increased MOR association with Gi2/o and σ2Rs
9 | β-End 1–26: β-End 1–31 derivative without 5 C-terminal residues (YGGFMTSEKSQTPLVTLFKNAIIKNA; Beta-endorphin; UniProt P01189 237-262, looked up, fragment) | disrupted these complexes with potencies in the pM/nM range |  |  |  | 
